Columns and labels:
Format in all cases: in vivo
Solarium nigrum (SOLNI) [1] = assay: Pre-emergence Test, SOLNI; conditions: 1000 g/ha, evaluated after 13 days
[2] = system: Amaranthus retoflexus (AMARE); assay: Pre-emergence Test, AMARE; conditions: 1000 g/ha, evaluated after 13 days
[3] = system: Ipornoea hederacea (IPOHE); assay: Pre-emergence Test, IPOHE; conditions: 1000 g/ha, evaluated after 13 days
[4] = system: Echinochloa crus-galli (ECHCG); assay: Pre-emergence Test, ECHCG; conditions: 1000 g/ha, evaluated after 13 days
Lolium perenne (LOLPE) [5] = assay: Pre-emergence Test, LOLPE; conditions: 1000 g/ha, evaluated after 13 days
Setaria faberi (SETFA) [6] = assay: Pre-emergence Test, SETFA; conditions: 1000 g/ha, evaluated after 13 days
ZEAMX [7] = assay: Pre-emergence Test, ZEAMX; conditions: 1000 g/ha, evaluated after 13 days
ABUTH [8] = assay: Pre-emergence Test, ABUTH; conditions: 1000 g/ha, evaluated after 13 days
Solarium nigrum (SOLNI) [9] = assay: Post-emergence Test, SOLNI; conditions: sprayed after 8 days cultivation, 1000 g/ha, evaluated after 13 days
Description: (§1) Seeds of a variety of test species are sown in standard soil in pots (Amaranthus retoflexus (AMARE), Solarium nigrum (SOLNI), Setaria faberi (SETFA), Lolium perenne (LOLPE), Echinochloa crus-galli (ECHCG), Ipornoea hederacea (IPOHE)). After 8 days cultivation under controlled conditions in a glasshouse (at 24° C./16° C., day/night; 14 hours light; 65% humidity), the plants are sprayed with an aqueous spray solution derived from the formulation of the technical active ingredient in acetone/water (50:50) solution containing 0.5% Tween 20 (polyoxyethylene sorbitan monolaurate, CAS RN 9005-64-5). Compounds are applied at 1000 g/ha unless otherwise stated. The test plants are then grown in a glasshouse under controlled conditions in a glasshouse (at 24° C./16° C., day/night; 14 hours light; 65% humidity) and watered twice daily. After 13 days the test is evaluated for the percentage damage caused to the plant. The biological activities are shown in the following table on a five-point scale (5=81-100%; 4=61-80%; 3=41-60%; 2=21-40%; 1=10-20%; 0=0%; −=not tested).

[10] = system: Amaranthus retoflexus (AMARE); assay: Post-emergence Test, AMARE; conditions: sprayed after 8 days cultivation, 1000 g/ha, evaluated after 13 days
Procedure, shortened: (§2)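 Pots sown with AMARE, SOLNI, SETFA, LOLPE, ECHCG, IPOHE, kept in glasshouse (24/16 °C, 14 h light, 65% humidity), sprayed at 1000 g/ha unless stated, in acetone/water 50:50 with 0.5% Tween 20. Damage scored after 13 days on a 0–5 scale (5=81–100%, 0=0%).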

[11] = system: Ipornoea hederacea (IPOHE); assay: Post-emergence Test, IPOHE; conditions: sprayed after 8 days cultivation, 1000 g/ha, evaluated after 13 days
Procedure, shortened: as §2

[12] = system: Echinochloa crus-galli (ECHCG); assay: Post-emergence Test, ECHCG; conditions: sprayed after 8 days cultivation, 1000 g/ha, evaluated after 13 days
Procedure, shortened: as §2

Lolium perenne (LOLPE) [13] = assay: Post-emergence Test, LOLPE; conditions: sprayed after 8 days cultivation, 1000 g/ha, evaluated after 13 days
Description: as §1

Setaria faberi (SETFA) [14] = assay: Post-emergence Test, SETFA; conditions: sprayed after 8 days cultivation, 1000 g/ha, evaluated after 13 days
Procedure, shortened: as §2

ZEAMX [15] = assay: Post-emergence Test, ZEAMX; conditions: sprayed after 8 days cultivation, 1000 g/ha, evaluated after 13 days
ABUTH [16] = assay: Post-emergence Test, ABUTH; conditions: sprayed after 8 days cultivation, 1000 g/ha, evaluated after 13 days

COC(=O)c1nn(-c2ccc(OC(F)(F)F)cc2)c2cccc(C(C)=O)c2c1=O [Compound P9, methyl 5-acetyl-4-oxo-1-[4-(trifluoromethoxy)phenyl] cinnoline-3-carboxylate]
percentage damage caused to the plant, SOLNI (Solarium nigrum (SOLNI) [1]): 3 (3=41-60%)
percentage damage caused to the plant, AMARE [2]: 1 (1=10-20%)
percentage damage caused to the plant, IPOHE [3]: 3 (3=41-60%)
percentage damage caused to the plant, ECHCG [4]: 5 (5=81-100%)
percentage damage caused to the plant, LOLPE (Lolium perenne (LOLPE) [5]): 4 (4=61-80%)
percentage damage caused to the plant, SETFA (Setaria faberi (SETFA) [6]): 5 (5=81-100%)
percentage damage caused to the plant, ZEAMX (ZEAMX [7]): 4 (4=61-80%)
percentage damage caused to the plant, ABUTH (ABUTH [8]): 3 (3=41-60%)
percentage damage caused to the plant, SOLNI (Solarium nigrum (SOLNI) [9]): 4 (4=61-80%)
percentage damage caused to the plant, AMARE [10]: 1 (1=10-20%)
percentage damage caused to the plant, IPOHE [11]: 2 (2=21-40%)
percentage damage caused to the plant, ECHCG [12]: 4 (4=61-80%)
percentage damage caused to the plant, LOLPE (Lolium perenne (LOLPE) [13]): 4 (4=61-80%)
percentage damage caused to the plant, SETFA (Setaria faberi (SETFA) [14]): 4 (4=61-80%)
percentage damage caused to the plant, ZEAMX (ZEAMX [15]): 4 (4=61-80%)
percentage damage caused to the plant, ABUTH (ABUTH [16]): 3 (3=41-60%)

— patent US12649722B2, “Herbicidal cinnoline derivatives” (SYNGENTA CROP PROTECTION AG, priority 2020, dated 2026)
